Results taken from patent US20080161309A1, “Novel Compounds” (priority 2004, published 2008).
pKi: −log10 of the molar value. Where a name gives a salt, the structure may show the parent alone. Blank lines part the entries; values can stand above or below the compound they belong to.

How the values were obtained:
[1] = Vapor sorption analysis of salts; type: physicochemical; details: 90% relative humidity, 25° C.; for moles water uptake per total moles of sample at 90% RH: calculated; for % mass change at 90% RH: compared to original mass of sample
Procedure: The propensity of besylate, hydrochloride, edisylate and fumarate salts of (2S)-2-[(S)-(4-chloro-2-methoxyphenoxy)(phenyl)methyl]morpholine to absorb water vapor was studied at various relative humidities (RH). The besylate, hydrochloride, and edisylate salts were analysed using a VTI Corporation SGA-100 Symmetric Vapor Sorption Analyzer equipped with a CI Electronics Limited, CI MK2, 1 Gram Microbalance, an EdgeTech MODEL 2000 […] DF DEWPOINT HYGROMETER, and an JULABO USA, Inc F25-HE Refrigerated and Heated Circulator. The following method was used:
The propensity of (2S)-2-[(S)-(4-chloro-2-methoxyphenoxy)(phenyl)methyl]morpholine […] to absorb water was similarly analyzed using a VTI Corporation SGA-100 Symmetric Vapor Sorption Analyzer equipped with a CAHN INSTRUMENTS INC, INC. D-200 Digital Recording Balance, an EdgeTech MODEL 2000 […] DF DEWPOINT HYGROMETER, and a JULABO USA, Inc F25-HD Refrigerated and Heated Circulator.

[2] = system: capsaicin-induced mechanical allodynia; assay: Rat model of capsaicin-induced mechanical allodynia; type: in vivo; details: sc, male Sprague-Dawley rats, 10 mg/kg subcutaneously, PWT 1 hour after single dose, mean of eight animals, normalized for vehicle, read-out: % Inhibition of allodynia
Procedure: Compounds of the present invention may be assayed for their ability to treat fibromylagia—like pain in a rat model of capsaicin-induced mechanical allodynia (e.g., Sluka, K A, (2002) J of Neuroscience, 22(13): 5687-5693). For example, a rat model of capsaicin-induced mechanical allodynia) was be carried out as follows:
On day 0, male Sprague-Dawley rats (˜150 g) in the dark cycle were placed in suspended wire-bottom cages and allowed to acclimate for 0.5 hour in a darkened, quiet room. The day 0 paw withdrawal threshold (PWT) was determined on the left hind paw by Von Frey hair assessment using the Dixon up and down method. After assessment, the plantar muscle of the right hind paw was injected with 100 μl capsaicin (0.25% (w/v) in 10% ethanol, 10% Tween 80, in sterile saline). On day 6 the PWT of the left hindpaw (contralateral from injection site) was determined for each animal. Animals from the day 6 prereads with PWT≦11.7 g were considered allodynic responders and were regrouped so that each cage had similar mean PWT values. On day 7, responders were dosed subcutaneously with 10 mg compound/kg body weight, or with vehicle alone. The vehicle was phosphate buffered saline containing 2% Cremophor® EL (BASF). The contralateral PWT values were determined at 1 hour after the single dose, with the investigator blinded to the dosing scheme.
In addition, the day 6 PWT was subtracted from the day 0 PWT to give the baseline window of allodynia present in each animal.

[3] = target: T1, human norepinephrine transporter (hNET) (Homo sapiens, UniProt P23975); assay: hNET receptor binding, [125I]-RTI-55, HEK-293 membranes; details: Cheng-Prusoff, read-out: NET Ki
T1 construct: expressed in transfected cells; host or cells: HEK-293, membranes
Procedure: Cell pastes of HEK-293 cells transfected with a human norepinephrine transporter cDNA were prepared. The cell pastes were resuspended in 400 to 700 ml of Krebs-HEPES assay buffer (25 mM HEPES, 122 mM NaCl, 3 mM KCl, 1.2 mM MgSO4, 1.3 mM CaCl2, and 11 mM glucose, pH 7.4) with a Polytron homogenizer at setting 7 for 30 seconds. Aliquots of membranes (5 mg/ml protein) were stored in liquid nitrogen until used.
The binding assay was set up in Beckman deep-well polypropylene plates with a total volume of 250 μl containing: drug (10^−5M to 10^−12M), cell membranes, and […] [^125I]-RTI-55 (Perkin Elmer, NEX-272; specific activity 2200 Ci/mmol). The reaction was incubated by gentle agitation for 90 minutes at room temperature and was terminated by filtration through Whatman GF/C filter plates using a Brandel 96-well plate harvester. Scintillation fluid (100 μl) was added to each well, and bound [^125I]-RTI-55 was determined using a Wallac Trilux Beta Plate Counter. Test compounds were run in duplicate, and specific binding was defined as the difference between binding in the presence and absence of 10 μM desipramine.
Excel and GraphPad Prism software were used for data calculation and analysis. IC50 values were converted to Ki values using the Cheng-Prusoff equation. The Ki values (nM) for the hNET are reported below in Table 1.

[4] = target: T2, human serotonin transporter (hSERT) (Homo sapiens, UniProt P31645); assay: hSERT receptor binding, [125I]-RTI-55, HEK-293 membranes; details: [125I]-RTI-55, HEK-293 membranes, Cheng-Prusoff; read-out: SERT Ki
T2 construct: expressed in transfected cells; host or cells: HEK-293, membranes
Procedure: Cell pastes of HEK-293 cells transfected with a human serotonin transporter cDNA were prepared. […] Aliquots of membranes (−2.5 mg/ml protein) were stored in liquid nitrogen until used.
The reaction was incubated and gently agitated for 90 minutes at room temperature, and terminated by removal of assay volume. […] Test compounds were run in duplicate, and specific binding was defined as the difference between binding in the presence and absence of 10 μM citalopram. Excel and GraphPad Prism software were used for data calculation and analysis. IC50 values were converted to Ki values using the Cheng-Prusoff equation.

T2 sequence (P31645 whole entry): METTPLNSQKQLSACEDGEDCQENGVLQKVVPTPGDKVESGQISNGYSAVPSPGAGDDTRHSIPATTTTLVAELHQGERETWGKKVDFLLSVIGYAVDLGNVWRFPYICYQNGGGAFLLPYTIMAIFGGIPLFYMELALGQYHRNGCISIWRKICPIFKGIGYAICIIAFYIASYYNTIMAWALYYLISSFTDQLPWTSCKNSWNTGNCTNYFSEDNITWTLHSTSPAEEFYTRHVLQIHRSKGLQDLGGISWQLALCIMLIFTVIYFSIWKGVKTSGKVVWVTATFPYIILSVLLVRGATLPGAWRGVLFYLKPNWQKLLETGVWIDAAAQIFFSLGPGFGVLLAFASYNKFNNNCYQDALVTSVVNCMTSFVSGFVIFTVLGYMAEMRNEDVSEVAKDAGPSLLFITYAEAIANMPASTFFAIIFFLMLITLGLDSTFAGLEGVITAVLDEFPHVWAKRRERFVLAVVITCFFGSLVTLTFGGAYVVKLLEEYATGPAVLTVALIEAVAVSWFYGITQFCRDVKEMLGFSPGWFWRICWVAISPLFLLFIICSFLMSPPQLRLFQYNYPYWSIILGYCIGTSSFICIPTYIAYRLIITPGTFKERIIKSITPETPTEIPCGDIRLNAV
T1 sequence (P23975 whole entry): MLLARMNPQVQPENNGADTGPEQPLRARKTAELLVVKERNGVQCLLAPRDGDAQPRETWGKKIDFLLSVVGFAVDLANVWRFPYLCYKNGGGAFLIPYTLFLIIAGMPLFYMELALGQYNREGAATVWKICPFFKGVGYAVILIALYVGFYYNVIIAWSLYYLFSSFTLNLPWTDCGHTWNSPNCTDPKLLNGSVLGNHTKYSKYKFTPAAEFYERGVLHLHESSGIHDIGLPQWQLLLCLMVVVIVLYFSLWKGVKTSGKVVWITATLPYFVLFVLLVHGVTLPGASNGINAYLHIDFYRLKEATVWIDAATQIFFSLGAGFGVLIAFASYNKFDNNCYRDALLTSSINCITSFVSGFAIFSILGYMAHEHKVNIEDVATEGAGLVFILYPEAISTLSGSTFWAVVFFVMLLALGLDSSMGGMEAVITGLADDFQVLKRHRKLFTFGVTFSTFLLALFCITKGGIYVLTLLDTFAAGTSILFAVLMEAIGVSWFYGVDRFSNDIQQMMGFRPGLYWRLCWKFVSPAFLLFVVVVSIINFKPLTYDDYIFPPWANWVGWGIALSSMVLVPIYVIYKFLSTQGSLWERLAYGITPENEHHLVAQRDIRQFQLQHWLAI

Compound: FC(F)Oc1cc(Cl)ccc1OC(c1ccccc1)C1CNCCO1 (centres unmarked) (as salt: citrate) [Example 4]
melting point: 119.29 °C

Compound: Fc1cccc(OC(c2ccccc2)C2CNCCO2)c1F (centres unmarked) (as salt: fumarate) [Example 6]
melting point: 119.96 °C

Compound: COc1cc(Cl)ccc1OC(c1ccc(F)cc1)C1CNCCO1 (centres unmarked) (as salt: hydrochloride) [Example 2]
melting point: 148.11 °C

Compound: c1ccc(C(Oc2cccc3cccnc23)C2CNCCO2)cc1 (centres unmarked) (as salt: succinate) [Example 9]
melting point: 98.24 °C

Compound: COc1cc(Cl)ccc1O[C@@H](c1ccccc1)[C@@H]1CNCCO1.Cl [Example 38, (2S)-2-[(1S)-(4-chloro-2-methoxyphenoxy) (phenyl)methyl] morpholine hydrochloride]
moles water uptake per total moles of sample at 90% RH [1]: 0.77 | % mass change at 90% RH [1]: 3.8% | inhibition in vivo at 10 mg/kg [2]: 59%

Compound: COc1cc(Cl)c(Cl)cc1O[C@@H](c1ccccc1)[C@@H]1CNCCO1 [Example 93, (2S)-2-[(1S)-(4,5-Dichloro-2-methoxyphenoxy)phenylmethyl] morpholine fumarate]
pKi [3]: 6.78 | pKi [4]: 7.15 | inhibition in vivo at 10 mg/kg [2]: 39%

Compound: COc1cc(Cl)ccc1O[C@@H](c1ccccc1)[C@@H]1CNCCO1.O=S(=O)(O)c1ccccc1 [besylate, (2S)-2-[(S)-(4-chloro-2-methoxyphenoxy)(phenyl)methyl]morpholine besylate]
moles water uptake per total moles of sample at 90% RH [1]: 0.17 | % mass change at 90% RH [1]: 0.64%

Compound: COc1cc(Cl)ccc1O[C@@H](c1ccccc1)[C@@H]1CNCCO1.O=C(O)/C=C/C(=O)O [fumaric, (2S)-2-[(1S)-(4-chloro-2-methoxyphenoxy) (phenyl)methyl]morpholine fumarate]
moles water uptake per total moles of sample at 90% RH [1]: 0.69 | % mass change at 90% RH [1]: 2.8%

Compound: (2S)-2-[(S)-(4-chloro-2-methoxyphenoxy)(phenyl)methyl]morpholine edisylate
moles water uptake per total moles of sample at 90% RH [1]: 1.32 | % mass change at 90% RH [1]: 4.6%

Continued, in another order:

melting point: 162.03 °C
Compound: COc1cc(Cl)ccc1OC(c1cccc(F)c1)C1CNCCO1 (centres unmarked) (as salt: camsylate) [Example 3]

melting point: 189.23 °C
Compound: Fc1c(Cl)cccc1OC(c1ccccc1)C1CNCCO1 (centres unmarked) (as salt: edisylate) [Example 8]

melting point: 106.48 °C
Compound: Fc1ccc(OC(c2ccccc2)C2CNCCO2)c(F)c1 (centres unmarked) (as salt: hydrobromid) [Example 7]

melting point: 92.68 °C
Compound: Fc1cc(Cl)ccc1OC(c1ccccc1)C1CNCCO1 (centres unmarked) (as salt: tartrate) [Example 5]

pKi [3]: 7.74 | pKi [4]: 6.73
Compound: Cc1ccc(Cl)c(O[C@@H](c2ccccc2)[C@@H]2CNCCO2)c1 [Example 87, (2S)-2-[(1S)-(2-Chloro-5-methylphenoxy)phenylmethyl] morpholine fumarate]
inhibition in vivo at 10 mg/kg [2]: 9.3%

pKi [3]: 7.69 | pKi [4]: 6.77
Compound: Clc1ccc(Cl)c(O[C@@H](c2ccccc2)[C@@H]2CNCCO2)c1 [Example 89, (2S)-2-[(1S)-(2,5-Dichlorophenoxy)phenylmethyl] morpholine fumarate]
inhibition in vivo at 10 mg/kg [2]: 27.8%

pKi [3]: 7.32 | pKi [4]: 6.65
Compound: Fc1ccc(O[C@@H](c2cccc(Cl)c2)[C@@H]2CNCCO2)c(Cl)c1 [Example 102, (2S)-2-[(1S)-(2-Chloro-4-fluorophenoxy) (3-chlorophenyl)methyl] morpholine fumarate]
inhibition in vivo at 10 mg/kg [2]: 59.5%

pKi [3]: 8.46 | pKi [4]: 6.21
Compound: Fc1ccc(O[C@@H](c2ccccn2)[C@@H]2CNCCO2)c(Cl)c1 [Example 105, (2S)-2-[(1S)-(2-chloro-4-fluorophenoxy)(pyridin-2-yl)methyl]morpholine fumarate]
inhibition in vivo at 10 mg/kg [2]: 13.7%
